Data taken from ChEMBL document CHEMBL1909046, “DrugMatrix in vitro pharmacology data”.

Columns and labels:
[1] = DRUGMATRIX: Potassium Channel [KATP] radioligand binding (ligand: [3H] Glyburide); format: cell membranes, Membrane; settings: hit-t15; Not Active = under 50% inhibition at 10 µM
[2] = target: Sodium-dependent noradrenaline transporter (Homo sapiens, UniProt P23975); assay: DRUGMATRIX: Norepinephrine Transporter radioligand binding (ligand: [125I] RTI-55); format: cell membranes, MDCK, Membrane; settings: mdck; Not Active = under 50% inhibition at 10 µM
Sequence of Sodium-dependent noradrenaline transporter (P23975 whole entry): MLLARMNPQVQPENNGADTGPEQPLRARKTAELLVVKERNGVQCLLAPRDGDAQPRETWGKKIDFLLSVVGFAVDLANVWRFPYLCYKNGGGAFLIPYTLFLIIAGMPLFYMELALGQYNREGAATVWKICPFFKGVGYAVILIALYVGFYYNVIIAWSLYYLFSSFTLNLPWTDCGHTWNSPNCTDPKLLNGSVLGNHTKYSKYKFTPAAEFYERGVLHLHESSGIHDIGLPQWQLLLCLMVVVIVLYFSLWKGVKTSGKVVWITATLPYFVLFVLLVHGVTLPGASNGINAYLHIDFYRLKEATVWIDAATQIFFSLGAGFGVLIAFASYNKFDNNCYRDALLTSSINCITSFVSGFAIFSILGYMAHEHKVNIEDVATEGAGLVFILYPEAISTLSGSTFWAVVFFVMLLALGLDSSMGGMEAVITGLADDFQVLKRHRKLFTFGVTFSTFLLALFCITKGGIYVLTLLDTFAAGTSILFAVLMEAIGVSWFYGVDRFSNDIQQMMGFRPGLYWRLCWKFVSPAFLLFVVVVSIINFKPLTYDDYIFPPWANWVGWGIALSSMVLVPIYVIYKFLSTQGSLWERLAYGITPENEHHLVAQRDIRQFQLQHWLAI

[3] = target: 5-hydroxytryptamine receptor 2B (Homo sapiens, UniProt P41595); format: cell membranes, CHO-K1, Membrane; further: in other assays of this panel Not Active means under 50% inhibition at 10 µM
Sequence of 5-hydroxytryptamine receptor 2B (P41595 whole entry): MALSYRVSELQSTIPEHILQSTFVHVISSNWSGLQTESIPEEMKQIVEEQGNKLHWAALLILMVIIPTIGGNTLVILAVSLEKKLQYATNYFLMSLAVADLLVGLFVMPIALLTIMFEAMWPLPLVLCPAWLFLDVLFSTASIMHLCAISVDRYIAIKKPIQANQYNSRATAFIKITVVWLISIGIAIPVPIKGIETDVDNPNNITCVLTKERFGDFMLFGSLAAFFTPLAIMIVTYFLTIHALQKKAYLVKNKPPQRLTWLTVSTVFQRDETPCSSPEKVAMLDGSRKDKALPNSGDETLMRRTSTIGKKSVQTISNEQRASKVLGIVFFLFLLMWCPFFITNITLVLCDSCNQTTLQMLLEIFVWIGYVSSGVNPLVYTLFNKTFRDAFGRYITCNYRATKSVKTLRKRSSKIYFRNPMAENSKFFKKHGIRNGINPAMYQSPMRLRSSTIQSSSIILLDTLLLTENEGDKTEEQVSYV

[4] = target: Cytochrome P450 2D6 (Homo sapiens, UniProt P10635); settings: bti-tn-5b1-4; further: in other assays of this panel Not Active means under 50% inhibition at 10 µM
[5] = target: Cytochrome P450 2C19 (Homo sapiens, UniProt P33261); settings: bti-tn-5b1-4; further: in other assays of this panel Not Active means under 50% inhibition at 10 µM
Sequence of Cytochrome P450 2C19 (P33261 whole entry): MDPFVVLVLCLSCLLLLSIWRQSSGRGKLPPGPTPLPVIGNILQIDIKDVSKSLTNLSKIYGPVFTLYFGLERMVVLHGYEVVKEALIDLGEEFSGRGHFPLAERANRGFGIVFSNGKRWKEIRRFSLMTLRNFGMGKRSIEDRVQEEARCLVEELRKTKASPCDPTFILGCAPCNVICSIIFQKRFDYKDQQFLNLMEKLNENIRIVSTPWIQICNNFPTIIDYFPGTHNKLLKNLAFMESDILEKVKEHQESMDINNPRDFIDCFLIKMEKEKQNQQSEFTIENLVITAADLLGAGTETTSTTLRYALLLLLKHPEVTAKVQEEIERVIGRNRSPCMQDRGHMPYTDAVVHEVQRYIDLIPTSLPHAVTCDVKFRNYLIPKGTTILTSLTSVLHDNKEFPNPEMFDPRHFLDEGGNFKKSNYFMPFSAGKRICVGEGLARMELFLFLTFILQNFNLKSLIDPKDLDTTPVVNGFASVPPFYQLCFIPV

[6] = DRUGMATRIX: Glutamate, NMDA, Agonism radioligand binding (ligand: [3H] CGP-39653); format: cell membranes, Rattus norvegicus, Wistar, Cerebral cortex, Membrane; settings: Not Active = under 50% inhibition at 10 µM
[7] = target: Voltage-gated inwardly rectifying potassium channel KCNH2 (Homo sapiens, UniProt Q12809); settings: hek293; further: in other assays of this panel Not Active means under 50% inhibition at 10 µM
Sequence of Voltage-gated inwardly rectifying potassium channel KCNH2 (Q12809 whole entry): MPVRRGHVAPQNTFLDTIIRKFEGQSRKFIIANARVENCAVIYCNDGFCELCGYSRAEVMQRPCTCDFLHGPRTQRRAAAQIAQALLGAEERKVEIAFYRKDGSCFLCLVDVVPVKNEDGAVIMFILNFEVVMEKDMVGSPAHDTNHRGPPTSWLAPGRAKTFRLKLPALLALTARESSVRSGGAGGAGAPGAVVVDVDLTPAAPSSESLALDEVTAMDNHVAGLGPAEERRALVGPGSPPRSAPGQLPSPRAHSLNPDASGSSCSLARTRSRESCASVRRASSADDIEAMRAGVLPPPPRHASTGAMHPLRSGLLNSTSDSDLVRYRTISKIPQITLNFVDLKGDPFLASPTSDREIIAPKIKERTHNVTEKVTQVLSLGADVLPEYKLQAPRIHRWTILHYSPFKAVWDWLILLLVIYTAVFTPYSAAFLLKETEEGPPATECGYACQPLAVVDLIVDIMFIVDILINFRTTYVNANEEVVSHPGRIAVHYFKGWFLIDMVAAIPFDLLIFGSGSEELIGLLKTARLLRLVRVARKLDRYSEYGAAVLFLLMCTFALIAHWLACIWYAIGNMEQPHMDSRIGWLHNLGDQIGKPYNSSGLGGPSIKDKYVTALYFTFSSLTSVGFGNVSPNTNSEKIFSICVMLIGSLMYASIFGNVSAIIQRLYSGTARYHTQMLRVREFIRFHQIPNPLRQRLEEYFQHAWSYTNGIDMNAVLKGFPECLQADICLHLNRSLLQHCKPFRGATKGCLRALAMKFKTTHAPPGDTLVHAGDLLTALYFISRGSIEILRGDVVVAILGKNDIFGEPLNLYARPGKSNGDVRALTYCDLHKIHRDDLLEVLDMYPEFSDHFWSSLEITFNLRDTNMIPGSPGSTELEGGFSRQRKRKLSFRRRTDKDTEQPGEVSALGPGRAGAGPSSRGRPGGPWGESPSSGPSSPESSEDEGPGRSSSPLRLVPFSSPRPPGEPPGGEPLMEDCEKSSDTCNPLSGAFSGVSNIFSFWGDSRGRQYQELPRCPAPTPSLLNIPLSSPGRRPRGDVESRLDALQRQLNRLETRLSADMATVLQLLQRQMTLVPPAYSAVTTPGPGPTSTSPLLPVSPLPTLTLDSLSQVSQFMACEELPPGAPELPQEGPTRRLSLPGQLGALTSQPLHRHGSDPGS

[8] = target: Nitric oxide synthase 1 (Rattus norvegicus, UniProt P29476); format: tissue-based, Cerebellum; further: in other assays of this panel Not Active means under 50% inhibition at 10 µM
Sequence of Nitric oxide synthase 1 (P29476 whole entry): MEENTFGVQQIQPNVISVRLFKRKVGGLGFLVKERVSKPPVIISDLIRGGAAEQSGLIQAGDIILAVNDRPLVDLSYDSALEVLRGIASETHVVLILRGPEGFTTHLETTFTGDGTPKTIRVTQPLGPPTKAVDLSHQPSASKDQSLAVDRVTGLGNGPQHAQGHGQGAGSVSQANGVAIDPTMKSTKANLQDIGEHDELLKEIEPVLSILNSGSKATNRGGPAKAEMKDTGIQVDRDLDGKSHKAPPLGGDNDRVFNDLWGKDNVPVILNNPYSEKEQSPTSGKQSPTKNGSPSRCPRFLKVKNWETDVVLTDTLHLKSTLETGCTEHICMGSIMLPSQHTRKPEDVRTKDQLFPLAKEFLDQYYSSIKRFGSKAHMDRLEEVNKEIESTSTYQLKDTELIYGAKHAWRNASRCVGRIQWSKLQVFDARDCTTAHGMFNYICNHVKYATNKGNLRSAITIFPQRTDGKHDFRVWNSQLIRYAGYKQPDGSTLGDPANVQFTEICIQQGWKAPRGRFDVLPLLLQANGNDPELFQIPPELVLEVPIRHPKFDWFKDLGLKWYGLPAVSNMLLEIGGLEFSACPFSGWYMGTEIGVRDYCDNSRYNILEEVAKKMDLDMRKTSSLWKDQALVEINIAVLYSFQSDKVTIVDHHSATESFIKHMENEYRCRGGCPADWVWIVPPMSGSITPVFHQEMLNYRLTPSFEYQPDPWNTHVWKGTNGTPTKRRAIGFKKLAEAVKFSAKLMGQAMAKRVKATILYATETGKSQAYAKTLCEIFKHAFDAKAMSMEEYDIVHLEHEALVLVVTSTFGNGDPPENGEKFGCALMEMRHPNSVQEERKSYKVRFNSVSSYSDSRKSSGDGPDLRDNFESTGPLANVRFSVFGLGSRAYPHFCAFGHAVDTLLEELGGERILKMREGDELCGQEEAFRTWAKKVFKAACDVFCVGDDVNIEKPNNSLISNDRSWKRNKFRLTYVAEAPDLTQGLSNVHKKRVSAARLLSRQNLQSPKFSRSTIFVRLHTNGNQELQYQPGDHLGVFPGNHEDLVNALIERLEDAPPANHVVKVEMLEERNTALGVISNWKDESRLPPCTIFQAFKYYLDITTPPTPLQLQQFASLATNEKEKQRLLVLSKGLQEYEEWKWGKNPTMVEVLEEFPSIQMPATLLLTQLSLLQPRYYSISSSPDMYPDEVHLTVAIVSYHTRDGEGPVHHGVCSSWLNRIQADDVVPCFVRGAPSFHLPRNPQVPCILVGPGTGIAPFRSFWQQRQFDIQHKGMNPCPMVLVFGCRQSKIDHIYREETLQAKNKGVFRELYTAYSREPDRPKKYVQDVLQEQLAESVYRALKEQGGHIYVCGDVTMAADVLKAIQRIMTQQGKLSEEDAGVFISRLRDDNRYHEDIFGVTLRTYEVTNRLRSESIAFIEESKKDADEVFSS

[9] = DRUGMATRIX: GABAA, Flunitrazepam, Central radioligand binding (ligand: [3H] Flunitrazepam); format: cell membranes, Rattus norvegicus, Wistar, Brain, Membrane; settings: Not Active = under 50% inhibition at 10 µM
[10] = target: T1, Muscarinic acetylcholine receptor M5 (Homo sapiens, UniProt P08912); format: cell membranes, CHO-K1, Membrane; settings: for Ki: read-out: Ki
T1 sequence (P08912 whole entry): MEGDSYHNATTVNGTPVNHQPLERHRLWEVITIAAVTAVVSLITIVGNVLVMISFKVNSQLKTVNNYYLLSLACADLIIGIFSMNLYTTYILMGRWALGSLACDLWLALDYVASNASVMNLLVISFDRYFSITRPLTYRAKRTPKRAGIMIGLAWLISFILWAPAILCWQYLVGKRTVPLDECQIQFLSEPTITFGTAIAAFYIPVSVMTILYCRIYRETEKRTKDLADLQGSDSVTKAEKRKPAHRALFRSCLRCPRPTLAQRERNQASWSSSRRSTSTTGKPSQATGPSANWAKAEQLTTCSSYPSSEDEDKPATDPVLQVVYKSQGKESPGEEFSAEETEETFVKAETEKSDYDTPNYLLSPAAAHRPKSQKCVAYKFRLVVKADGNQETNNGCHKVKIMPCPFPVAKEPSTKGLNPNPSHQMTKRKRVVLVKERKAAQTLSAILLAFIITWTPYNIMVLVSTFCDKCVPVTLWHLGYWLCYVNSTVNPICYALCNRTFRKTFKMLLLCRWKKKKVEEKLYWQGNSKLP

[11] = target: Cytochrome P450 3A4 (Homo sapiens, UniProt P08684); settings: bti-tn-5b1-4; further: in other assays of this panel Not Active means under 50% inhibition at 10 µM
Sequence of Cytochrome P450 3A4 (P08684 whole entry): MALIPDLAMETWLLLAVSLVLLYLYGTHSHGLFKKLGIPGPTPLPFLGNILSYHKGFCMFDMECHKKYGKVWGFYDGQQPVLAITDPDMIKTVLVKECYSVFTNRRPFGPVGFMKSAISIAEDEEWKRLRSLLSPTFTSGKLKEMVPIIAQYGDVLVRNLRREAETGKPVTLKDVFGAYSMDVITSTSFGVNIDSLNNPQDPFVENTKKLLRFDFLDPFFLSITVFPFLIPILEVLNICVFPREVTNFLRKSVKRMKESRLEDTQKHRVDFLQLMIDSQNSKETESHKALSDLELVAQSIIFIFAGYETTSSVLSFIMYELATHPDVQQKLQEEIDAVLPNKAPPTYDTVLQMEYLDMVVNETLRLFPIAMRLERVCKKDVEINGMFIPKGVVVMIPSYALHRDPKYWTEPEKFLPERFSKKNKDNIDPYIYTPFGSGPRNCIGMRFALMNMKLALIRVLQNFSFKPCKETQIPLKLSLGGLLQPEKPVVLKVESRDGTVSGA

[12] = target: T2, Glucocorticoid receptor (Homo sapiens, UniProt P04150); settings: hela s3; further: in other assays of this panel Not Active means under 50% inhibition at 10 µM
T2 sequence (P04150 whole entry): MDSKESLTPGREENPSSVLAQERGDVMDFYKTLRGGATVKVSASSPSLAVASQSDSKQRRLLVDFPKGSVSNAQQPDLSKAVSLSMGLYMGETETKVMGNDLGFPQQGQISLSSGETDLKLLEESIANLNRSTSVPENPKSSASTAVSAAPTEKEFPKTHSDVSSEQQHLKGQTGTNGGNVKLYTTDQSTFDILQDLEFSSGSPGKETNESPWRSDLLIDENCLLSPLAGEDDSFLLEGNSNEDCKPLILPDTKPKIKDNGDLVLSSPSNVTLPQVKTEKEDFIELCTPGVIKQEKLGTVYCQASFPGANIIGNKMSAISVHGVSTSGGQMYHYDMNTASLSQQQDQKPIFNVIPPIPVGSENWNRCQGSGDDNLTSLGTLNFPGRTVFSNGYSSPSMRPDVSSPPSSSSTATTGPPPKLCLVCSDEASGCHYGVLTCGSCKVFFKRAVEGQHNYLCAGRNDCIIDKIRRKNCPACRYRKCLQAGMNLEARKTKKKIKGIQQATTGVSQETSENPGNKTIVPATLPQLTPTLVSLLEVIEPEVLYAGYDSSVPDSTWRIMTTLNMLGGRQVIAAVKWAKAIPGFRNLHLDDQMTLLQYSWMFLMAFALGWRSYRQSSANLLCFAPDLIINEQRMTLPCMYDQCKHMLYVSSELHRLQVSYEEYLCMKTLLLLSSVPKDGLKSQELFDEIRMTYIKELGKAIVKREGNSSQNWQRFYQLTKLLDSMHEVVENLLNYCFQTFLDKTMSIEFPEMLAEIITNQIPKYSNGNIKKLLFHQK

[13] = target: Estrogen receptor beta (Homo sapiens, UniProt Q92731); settings: sf9; further: in other assays of this panel Not Active means under 50% inhibition at 10 µM

## CC(C)(C)NC(=O)[C@@H]1CN(Cc2cccnc2)CCN1C[C@@H](O)C[C@@H](Cc1ccccc1)C(=O)N[C@H]1c2ccccc2C[C@H]1O.O
[1]
  IC50: Not Active
  Ki: Not Active
[2]
  IC50: Not Active
[3]; cho-k1
  IC50: Not Active
[4]
  IC50: Not Active
  Ki: Not Active
[5]
  IC50: Not Active
  Ki: Not Active
[6]
  IC50: Not Active
  Ki: Not Active
[7]
  IC50: Not Active
  Ki: Not Active
[8]
  IC50: Not Active
[9]
  IC50: Not Active
  Ki: Not Active
[10]; cho-k1
  IC50: Not Active

## COc1ccc(CCN2CCC(Nc3nc4ccccc4n3Cc3ccc(F)cc3)CC2)cc1 [ASTEMIZOLE]
[11]
  IC50: Not Active
  Ki: Not Active
[4]
  IC50: Not Active
  Ki: Not Active
[12]
  IC50: Not Active
[5]
  IC50: Not Active
  Ki: Not Active
[8]
  IC50: Not Active
[10]; read-out: IC50
  IC50: 703 nM
[10]
  Ki: 505 nM

## CN(C)CCCN1c2ccccc2CCc2ccc(Cl)cc21 [CLOMIPRAMINE]
[11]
  IC50: Not Active
  Ki: Not Active
[3]; read-out: IC50
  IC50: 239 nM
[3]; read-out: Ki
  Ki: 152 nM
[12]
  IC50: Not Active
[5]
  IC50: Not Active
  Ki: Not Active
[7]
  IC50: Not Active
  Ki: Not Active
[8]
  IC50: Not Active
[10]; read-out: IC50
  IC50: 53 nM
[10]
  Ki: 38 nM

## Nc1nnc(-c2cccc(Cl)c2Cl)c(N)n1 [LAMOTRIGINE]
[1]
  IC50: Not Active
  Ki: Not Active
[13]
  IC50: Not Active
[3]; cho-k1
  IC50: Not Active
[4]
  IC50: Not Active
  Ki: Not Active
[5]
  IC50: Not Active
  Ki: Not Active
[6]
  IC50: Not Active
  Ki: Not Active
[8]
  IC50: Not Active
[9]
  IC50: Not Active
  Ki: Not Active
[10]; cho-k1
  IC50: Not Active

## NCCCC[C@H](N[C@@H](CCc1ccccc1)C(=O)O)C(=O)N1CCC[C@H]1C(=O)O [LISINOPRIL ANHYDROUS]
[2]
  IC50: Not Active
[3]; cho-k1
  IC50: Not Active
[4]
  IC50: Not Active
  Ki: Not Active
[12]
  IC50: Not Active
[5]
  IC50: Not Active
  Ki: Not Active
[6]
  IC50: Not Active
  Ki: Not Active
[8]
  IC50: Not Active
[9]
  IC50: Not Active
  Ki: Not Active
[10]; cho-k1
  IC50: Not Active

## NNc1ccccc1 [PHENYLHYDRAZINE]
[1]
  IC50: Not Active
  Ki: Not Active
[2]
  IC50: Not Active
[13]
  IC50: Not Active
[3]; cho-k1
  IC50: Not Active
[6]
  IC50: Not Active
  Ki: Not Active
[7]
  IC50: Not Active
  Ki: Not Active
[8]
  IC50: Not Active
[9]
  IC50: Not Active
  Ki: Not Active
[10]; cho-k1
  IC50: Not Active
